# Results published in patent US10940144B2, “Drug containing pyridylaminoacetic acid compound” (priority 2017, dated 2021).
# Tests used:
# [1] = test system: retinal blood vessels; test: Pharmacological Test 2: retinal vasodilatory action (retinal vascular diameter) after intravitreal administration of omidenepag isopropyl to rabbits; type: in vivo, rabbit; conditions: for Base-Corrected Retinal Vascular Diameter Change Rate (%) 1 Hour After Administration / Base-Corrected Retinal Vascular Diameter Change Rate (%) 2 Hours After Administration / Base-Corrected Retinal Vascular Diameter Change Rate (%) 6 Hours After Administration / Base-Corrected Retinal Vascular Diameter Change Rate (%) 24 Hours After Administration / Base-Corrected Retinal Vascular Diameter Change Rate (%) 48 Hours After Administration: 20 μL intravitreal single injection, pigmented rabbits
# Procedure: (a) The fundus images captured immediately before the administration, 1 hour, 2 hours, 6 hours, and 24 hours after the administration were used to measure, as the vascular diameters, (i) the vascular diameter of the retinal artery on the nose side, (ii) the vascular diameter of the retinal artery on the ear side, and (iii) the optic nerve head diameter (longitudinal diameter passing through the center of the optic nerve head).
# (b) The average value of (i) the vascular diameter of the retinal artery on the nose side and (ii) the vascular diameter of the retinal artery on the ear side measured from the fundus images for each time period was divided by (iii) the optic nerve head diameter to calculate the corrected retinal vascular diameter. [Corrected Retinal Vascular Diameter]=(([(i) Vascular Diameter of Retinal Artery on Nose Side]+[(ii) Vascular Diameter of Retinal Artery on Ear Side])/2)/([(iii) Optic Nerve Head Diameter])
# (c) The ratio of the corrected retinal vascular diameter after passage of each of the time periods of 1 hour, 2 hours, 6 hours, and 24 hours after administration to the corrected retinal vascular diameter immediately before administration (retinal vascular diameter change rate (%)) was calculated. [Retinal Vascular Diameter Change Rate (%) After Passage of Each Time Period After Administration]=[Corrected Retinal Vascular Diameter After Passage of Each Time Period After Administration]/[Corrected Retinal Vascular Diameter Immediately Before Administration]×100
# (d) For each time period after administration, the difference (base-corrected retinal vascular diameter change rate (%)) was calculated between the retinal vascular diameter change rate (%) of the group administered with the base simultaneously carried out and the retinal vascular diameter change rate (%) of the groups administered with samples (omidenepag samples 1 and 2, and CP-544326 samples 1 and 2). [Base-Corrected Retinal Vascular Diameter Change Rate (%) After Passage of Each Time Period]=[Retinal Vascular Diameter Change Rate (%) After Passage of Each Time Period After Administration of Samples]−[Retinal Vascular Diameter Change Rate (%) After Passage of Each Time Period After Administration of Base]
# (e) The base-corrected retinal vascular diameter change rate (%) of (a) to (d) above was calculated for three experimental animals in each group, and the average thereof was defined as the value of the “base-corrected retinal vascular diameter change rate (%).”
# In order to find anew medicinal use of omidenepag, an ester thereof, or a salt thereof, the retinal vasodilatory action in the case of administering omidenepag isopropyl to rabbits was examined.
# Omidenepag isopropyl at 3.98 mg was dissolved in dimethyl sulfoxide to a total volume of 118 μL. Of the total volume, 10 μL was added and dissolved into physiological saline, and an appropriate amount of sodium hydroxide solution was added to adjust the pH of the formulation to 6.4. Thereafter, physiological saline was further added to a total volume of 10 mL to obtain omidenepag isopropyl sample 1 (containing 0.00338% (w/v) (33.8 μg/mL) of omidenepag isopropyl). In addition, the base B was added to 0.1 mL of omidenepag isopropyl sample 1 to a total volume of 10 mL, and omidenepag isopropyl sample 2 was obtained (containing 0.0000338% (w/v) (0.338 μg/mL) of omidenepag isopropyl).
# In the same method as that in Pharmacological Test 1, the base B and omidenepag isopropyl samples 1 and 2, each at 20 μL, were administered intravitreally (injection, single time) to examine the change in retinal vascular diameter. Note that, 1 hour, 2 hours, 6 hours, 24 hours, and 48 hours after administration of each test compound solution, fundus images of the retinal vascular diameter measuring eyes were captured, and the retinal vascular diameters and the like were measured from the obtained fundus images. […]
# [2] = test system: optic nerve head tissue blood flow; test: Pharmacological Test 4: optic nerve head tissue blood flow (laser speckle flowgraphy) after repeated instillation of omidenepag isopropyl to rabbits; type: in vivo, rabbit; conditions: for Base-Corrected Optic Nerve Head Tissue Blood Flow Change Rate (%): 0.002% (w/v) (20 μg/mL), 50 μL instilled once a day for 14 days, rabbit, average of four animals
# Procedure: In order to find a new medicinal use of omidenepag, an ester thereof, or a salt thereof, the action of increasing tissue blood flow in the optic nerve head in the case of instilling omidenepag isopropyl to rabbits was examined.
# Omidenepag isopropyl, polyoxyl 35 castor oil, glycerin, sodium citrate, sodium edentate, and benzalkonium chloride were added and dissolved into purified water to adjust the pH. Thereafter, purified water was added to adjust the total volume, thereby preparing a 0.002 w/v % omidenepag isopropyl solution (omidenepag isopropyl sample 3).
# The base D and omidenepag isopropyl sample 3 as test compound solutions, each at 50 μL, were instilled (ophthalmic solution, once a day, repeated instillation for 14 days) to examine the change in optic nerve head tissue blood flow. In addition, pigmented rabbits (strain: Dutch, sex: male, four animals per group) were used as experimental animals.
# 1) After holding the above experimental animals, one drop (about 0.03 mL) of a 0.4% tropicamide ophthalmic solution (trade name: Mydrin-M ophthalmic solution 0.4%) was instilled into the optic nerve head tissue blood flow measurement eye to fully dilate the pupil. Thereafter, laser speckle flowgraphy (LSFG-NAVI manufactured by Softcare Co., Ltd.) was used to measure the tissue blood flow in the optic nerve head of the measurement eye.
# 2) The test compound solutions were instilled at 50 μL into one eye (optic nerve head tissue blood flow measurement eye) of each of the experimental animals once a day for 14 days (the contralateral eye was untreated).
# 3) At 1 hour and 2 hours after administration of each test compound solution at day 1, day 7, and day 14 after administration of each test compound solution, the optic nerve head tissue blood flow of the optic nerve head tissue blood flow measurement eye was measured.
# (a) The ratio of the optic nerve head tissue blood flow after passage of each of the time periods of 1 hour and 2 hours after administration of each test compound solution at day 1, day 7, and day 14 after the start of administration of each test compound solution to the optic nerve head tissue blood flow immediately before administration (optic nerve head tissue blood flow change rate (%)) was calculated. [Optic Nerve Head Tissue Blood Flow Change Rate (%) After Passage of Each Time Period After Administration]=[Optic Nerve Head Tissue Blood Flow After Passage of Each Time Period After Administration]/[Optic Nerve Head Tissue Blood Flow Immediately Before Administration]×100
# (b) For each time period after administration, the difference (base-corrected optic nerve head tissue blood flow change rate (%)) was calculated between the optic nerve head tissue blood flow change rate (%) of the group administered with the base D simultaneously carried out and the optic nerve head tissue blood flow change rate (%) of the group administered with omidenepag isopropyl sample 3. [Base-Corrected Optic Nerve Head Tissue Blood Flow Change Rate (%) After Passage of Each Time Period]=[Optic Nerve Head Tissue Blood Flow Change Rate (%) After Passage of Each Time Period After Administration of Omidenepag Isopropyl Sample 3]−[Optic Nerve Head Tissue Blood Flow Change Rate (%) After Passage of Each Time Period After Administration of Base D]
# (c) The base-corrected optic nerve head tissue blood flow change rate (%) of (a) and (b) above was calculated for four experimental animals in each group, and the average thereof was defined as the value of the “base-corrected optic nerve head tissue blood flow change rate (%).”
smiles,measurement,setting,value
"CC(C)OC(=O)CNc1cccc(CN(Cc2ccc(-n3cccn3)cc2)S(=O)(=O)c2cccnc2)n1 [Omidenepag Isopropyl, isopropyl (6-{[4-(pyrazol-1-yl)benzyl](pyridin-3-ylsulfonyl)aminomethyl}pyridin-2-ylamino)acetate]",Base-Corrected Retinal Vascular Diameter Change Rate (%) 1 Hour After Administration,[1]; 0.0000338% (w/v) (0.338 μg/mL),25.1%
same,Base-Corrected Retinal Vascular Diameter Change Rate (%) 2 Hours After Administration,[1]; 0.0000338% (w/v) (0.338 μg/mL),34.5%
same,Base-Corrected Retinal Vascular Diameter Change Rate (%) 6 Hours After Administration,[1]; 0.0000338% (w/v) (0.338 μg/mL),18.4%
same,Base-Corrected Retinal Vascular Diameter Change Rate (%) 24 Hours After Administration,[1]; 0.0000338% (w/v) (0.338 μg/mL),6.8%
same,Base-Corrected Retinal Vascular Diameter Change Rate (%) 48 Hours After Administration,[1]; 0.0000338% (w/v) (0.338 μg/mL),1.7%
same,Base-Corrected Retinal Vascular Diameter Change Rate (%) 1 Hour After Administration,[1]; 0.00338% (w/v) (33.8 μg/mL),58.4%
same,Base-Corrected Retinal Vascular Diameter Change Rate (%) 2 Hours After Administration,[1]; 0.00338% (w/v) (33.8 μg/mL),81.7%
same,Base-Corrected Retinal Vascular Diameter Change Rate (%) 6 Hours After Administration,[1]; 0.00338% (w/v) (33.8 μg/mL),73.8%
same,Base-Corrected Retinal Vascular Diameter Change Rate (%) 24 Hours After Administration,[1]; 0.00338% (w/v) (33.8 μg/mL),16.0%
same,Base-Corrected Retinal Vascular Diameter Change Rate (%) 48 Hours After Administration,[1]; 0.00338% (w/v) (33.8 μg/mL),0.0%
same,durability of retinal vasodilatory action compared with omidenepag (in words),"[1]; both 65.0 μM, 24 hours after intravitreal administration, rabbits",amore durable action than omidenepag
same,retinal vasodilatory action (in words),"[1]; intravitreal, rabbits",significantly strong retinal vasodilatory action
same,"blood flow increasing action, optic nerve head (in words)","[2]; 0.002 w/v % solution, 50 μL instillation once a day for 14 days, rabbits",good blood flow increasing action
same,Base-Corrected Optic Nerve Head Tissue Blood Flow Change Rate (%),"[2]; Day 1, 1 hour after administration",7.2%
same,Base-Corrected Optic Nerve Head Tissue Blood Flow Change Rate (%),"[2]; Day 1, 2 hours after administration",6.3%
same,Base-Corrected Optic Nerve Head Tissue Blood Flow Change Rate (%),"[2]; Day 7, 1 hour after administration",9.9%
same,Base-Corrected Optic Nerve Head Tissue Blood Flow Change Rate (%),"[2]; Day 7, 2 hours after administration",12.4%
same,Base-Corrected Optic Nerve Head Tissue Blood Flow Change Rate (%),"[2]; Day 14, 1 hour after administration",13.6%
same,Base-Corrected Optic Nerve Head Tissue Blood Flow Change Rate (%),"[2]; Day 14, 2 hours after administration",11.5%
